Laboratory results as given in patent US5925731A, “Endothelin antagonist peptides” (Takeda Chemical Industries, Ltd., priority 1995, dated 1999).
*1 amine or outer side, *2 acyl side, *3 side chain or, on linkers, in order; H or OH if unused. Where a SMILES comes first, the peptide text is derived from it. [ ]: non-standard residue; d: D form. The star is where a group is joined. Piperazinyl(4-(2-MeOPh)) = COc1ccccc1N1CCN(*)CC1; Piperazinyl(4-Ph) = c1ccc(N2CCN(*)CC2)cc1; X3 = COc1ccc(C)cc1N1CCN(*)CC1; X2 = COc1cccc(N2CCN(*)CC2)c1; dNle = CCCC[C@@H](N)C(=O)O; X4 = Fc1ccccc1N1CCN(*)CC1; Nle = CCCC[C@H](N)C(=O)O; CO = O=C([*:1])[*:2]; X1 = C1CCCN(*)CC1; Moc = COC(=O)*; For = O=C*

What was measured:
[1] = target: T1, human endothelin receptor ETA (Homo sapiens, UniProt P25101); assay: Radioiodinated endothelin-1 binding to membrane fraction of CHO cells expressing human endothelin receptor ETA; conditions: radioactive-iodine-labeled endothelin-1, 25° C., one hour
T1 construct: expressed in transfected cells; host or cells: CHO cells (membrane fraction)
T1 sequence (P25101 21-427): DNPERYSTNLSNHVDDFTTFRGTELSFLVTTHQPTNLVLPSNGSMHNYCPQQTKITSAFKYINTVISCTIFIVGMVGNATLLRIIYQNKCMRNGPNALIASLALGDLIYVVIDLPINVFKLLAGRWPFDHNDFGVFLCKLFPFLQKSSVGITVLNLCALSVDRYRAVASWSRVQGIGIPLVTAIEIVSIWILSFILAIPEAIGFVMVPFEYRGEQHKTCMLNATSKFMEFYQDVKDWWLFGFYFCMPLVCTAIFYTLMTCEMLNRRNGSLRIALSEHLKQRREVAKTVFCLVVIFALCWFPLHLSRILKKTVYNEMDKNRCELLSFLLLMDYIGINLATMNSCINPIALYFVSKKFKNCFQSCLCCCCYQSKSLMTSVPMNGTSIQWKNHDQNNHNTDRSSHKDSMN
Description: (§1) The membrane fraction of CHO cells on which human endothelin receptor (ETA or ETB) was expressed was diluted to 0.15 mg/ml with an assaying buffer and dispensed to assaying tubes at 100 μl per tube. To this membrane fraction suspension were added 2 μl of a solution of endothelin-1 labeled with radioactive iodine (5 nM) and 3 μl of a 50% dimethyl sulfoxide of the test compound, followed by incubation at 25° C. for one hour. The membrane fraction suspension was diluted with 900 μl of an ice-cooled assaying buffer and centrifuged at 12,000×G for 10 minutes to separate supernatant and precipitate. The precipitate contained cell membranes and endothelin receptors embedded therein. The receptor-bound endothelin, labeled with radioactive iodine, was also recovered in the precipitate. The radioactive iodine in this precipitate was counted, using a gamma ray counter, to determine the amount of radioactive-iodine-labeled endothelin-1 bound to the endothelin receptors. The results of the quantitative determination were shown in the respective IC50 (nm) values in the following Table 2.

[2] = target: T2, human endothelin receptor ETB (Homo sapiens, UniProt P24530); assay: Radioiodinated endothelin-1 binding to membrane fraction of CHO cells expressing human endothelin receptor ETB; conditions: radioactive-iodine-labeled endothelin-1, 25° C., one hour
T2 construct: expressed in transfected cells; host or cells: CHO cells (membrane fraction)
T2 sequence (P24530 27-442): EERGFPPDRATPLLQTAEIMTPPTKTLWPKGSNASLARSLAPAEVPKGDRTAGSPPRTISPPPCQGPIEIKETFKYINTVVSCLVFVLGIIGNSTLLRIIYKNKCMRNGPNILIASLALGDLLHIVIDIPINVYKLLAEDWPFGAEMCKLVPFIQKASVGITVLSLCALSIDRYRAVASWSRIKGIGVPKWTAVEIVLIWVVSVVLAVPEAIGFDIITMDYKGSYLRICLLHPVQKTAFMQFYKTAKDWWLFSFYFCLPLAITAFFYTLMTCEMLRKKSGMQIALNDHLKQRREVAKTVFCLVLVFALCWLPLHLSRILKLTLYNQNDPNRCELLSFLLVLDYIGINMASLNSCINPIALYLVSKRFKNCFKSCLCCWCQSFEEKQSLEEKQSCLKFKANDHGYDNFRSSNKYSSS
Description: as §1

SMILES | IC50 [1] | IC50 [2]
CCCC[C@@H](NC(=O)[C@@H](Cc1cn(C(=O)OC)c2ccccc12)NC(=O)[C@H](CC(C)C)NC(=O)N1CCCCCC1)C(=O)N[C@H](CC(=O)N1CCN(c2cc(C)ccc2OC)CC1)C(=O)O [W. Ex. 7, Hexamethyleniminocarbonyl-Leu-D-Trp(COOMe)-D-Nle-D-Asp(2MeO-5MePhp)] ({X1-CO}-L[dW](Moc)[dNle][dD](X3)-OH) | 49 nM | 110 nM
CCCC[C@@H](NC(=O)[C@@H](Cc1cn(C(=O)OC)c2ccccc12)NC(=O)[C@H](CC(C)C)NC(=O)N1CCCCCC1)C(=O)N[C@H](CC(=O)N1CCN(c2cccc(OC)c2)CC1)C(=O)O [W. Ex. 6, Hexamethyleniminocarbonyl-Leu-D-Trp(COOMe)-D-Nle-D-Asp (3MeOPhp)] ({X1-CO}-L[dW](Moc)[dNle][dD](X2)-OH) | 28 nM | 29 nM
CCCC[C@H](NC(=O)N1CCCCCC1)C(=O)N[C@H](Cc1cn(C(=O)OC)c2ccccc12)C(=O)N[C@H](CCCC)C(=O)N[C@H](CC(=O)N1CCN(c2ccccc2)CC1)C(=O)O [W. Ex. 10, Hexamethyleniminocarbonyl-Nle-D-Trp(COOMe)-D-Nle-D-Asp(Php)] ({X1-CO}-[Nle][dW](Moc)[dNle][dD](Piperazinyl(4-Ph))-OH) | 34 nM | 75 nM
CCCC[C@@H](NC(=O)[C@@H](Cc1cn(C(=O)OC)c2ccccc12)NC(=O)[C@H](CC(C)C)NC(=O)N1CCCCCC1)C(=O)N[C@H](CCC(=O)O)C(=O)N1CCN(c2ccccc2)CC1 [W. Ex. 4, Hexamethyleniminocarbonyl-Leu-D-Trp(COOMe)-D-Nle-D-Glu-Php] ({X1-CO}-L[dW](Moc)[dNle][dE]-{Piperazinyl(4-Ph)}) | 23 nM | 23 nM
CCCC[C@@H](NC(=O)[C@@H](Cc1cn(C=O)c2ccccc12)NC(=O)[C@H](CC(C)C)NC(=O)N1CCCCCC1)C(=O)N[C@H](CC(=O)N1CCN(c2ccccc2)CC1)C(=O)O [W. Ex. 1, Hexamethyleniminocarbonyl-Leu-D-Trp(CHO)-D-Nle-D-Asp(Php)] ({X1-CO}-L[dW](For)[dNle][dD](Piperazinyl(4-Ph))-OH) | 1.8 nM | 130 nM

More lines, now with the values ahead:

IC50 [1] | IC50 [2] | SMILES
21 nM | 15 nM | CCCC[C@@H](NC(=O)[C@@H](Cc1cn(C(=O)OC)c2ccccc12)NC(=O)[C@@H](NC(=O)N1CCCCCC1)[C@@H](C)CC)C(=O)N[C@H](CC(=O)N1CCN(c2ccccc2)CC1)C(=O)O [W. Ex. 9, Hexamethyleniminocarbonyl-Ile-D-Trp(COOMe)-D-Nle-D-Asp(Php)] ({X1-CO}-I[dW](Moc)[dNle][dD](Piperazinyl(4-Ph))-OH)
11 nM | 18 nM | CCCC[C@@H](NC(=O)[C@@H](Cc1cn(C(=O)OC)c2ccccc12)NC(=O)[C@H](CC(C)C)NC(=O)N1CCCCCC1)C(=O)N[C@H](CC(=O)N1CCN(c2ccccc2)CC1)C(=O)O [W. Ex. 2, Hexamethyleniminocarbonyl-Leu-D-Trp(COOMe)-D-Nle-D-Asp(Php)] ({X1-CO}-L[dW](Moc)[dNle][dD](Piperazinyl(4-Ph))-OH)
45 nM | 34 nM | CCCC[C@@H](NC(=O)[C@@H](Cc1cn(C(=O)OC)c2ccccc12)NC(=O)[C@H](CC(C)C)NC(=O)N1CCCCCC1)C(=O)N[C@@H](CC(=O)N1CCN(c2ccccc2)CC1)C(=O)O [W. Ex. 3, Hexamethyleniminocarbonyl-Leu-D-Trp(COOMe)-D-Nle-Asp (Php)] ({X1-CO}-L[dW](Moc)[dNle]D(Piperazinyl(4-Ph))-OH)
18 nM | 29 nM | CCCC[C@@H](NC(=O)[C@@H](Cc1cn(C(=O)OC)c2ccccc12)NC(=O)[C@H](CC(C)C)NC(=O)N1CCCCCC1)C(=O)N[C@H](CC(=O)N1CCN(c2ccccc2F)CC1)C(=O)O [W. Ex. 8, Hexamethyleniminocarbonyl-Leu-D-Trp(COOMe)-D-Nle-D-Asp (2FPhp)] ({X1-CO}-L[dW](Moc)[dNle][dD](X4)-OH)
7.1 nM | 7.9 nM | CCCC[C@@H](NC(=O)[C@@H](Cc1cn(C(=O)OC)c2ccccc12)NC(=O)[C@H](CC(C)C)NC(=O)N1CCCCCC1)C(=O)N[C@H](CC(=O)N1CCN(c2ccccc2OC)CC1)C(=O)O [W. Ex. 5, Hexamethyleniminocarbonyl-Leu-D-Trp(COOMe)-D-Nle-D-Asp (2MeOPhp)] ({X1-CO}-L[dW](Moc)[dNle][dD](Piperazinyl(4-(2-MeOPh)))-OH)
